Measurements published in patent publication US20120214784A1, “SPIROPIPERIDINE COMPOUNDS AS ORL-1 RECEPTOR ANTAGONISTS” (ELI LILLY AND COMPANY, priority 2009, published 2012).

Assays:
[1] = tested on: wild type and ORL knockout mice; assay: Blockade of fasting-induced hyperphagia in mice; format: in vivo, mouse; conditions: wild type mice, oral gavage 30 min. prior to food, food intake 1 hr
Text: Blockade of fasting-induced hyperphagia in rats is an accepted model for hyperphagic eating disorders. […] Mice are individually housed a minimum of 3 days prior to the onset of testing to eliminate any effects of stress due to the change from group to individual housing. Three mice/genotype are randomly assigned to each treatment group on the test day. Pre-fast body weight measurements are taken, and food is then removed from cages overnight. Mice are fasted for approximately 15 hr. The next morning, the mice are given one of three doses of drug or vehicle via oral gavage 30 min. prior to gaining access to food. Drugs are dissolved in 20% Captisol dissolved in 25 mM phosphate buffer, pH 2.0. Measurements of body weight are taken immediately prior to drug treatment or 24 hr. after access to food is restored. […] Measurements of food intake are recorded 1 hr following access to food, as indicated, by weight of food remaining at 1 hr. It should be noted that food intake measured is during the light phase, a time during which mice are typically at rest and not normally eating. Following initial testing, mice are rested for 1 week with access to unlimited chow.

[2] = target: T1, cloned human ORL1/nociceptin receptors (Homo sapiens, UniProt P41146); assay: Functional blockade of agonist-mediated G-protein activation, GTP-γ-[35S] binding; format: biochemical
T1 construct: expressed in transfected cells
T1 sequence (P41146 whole entry): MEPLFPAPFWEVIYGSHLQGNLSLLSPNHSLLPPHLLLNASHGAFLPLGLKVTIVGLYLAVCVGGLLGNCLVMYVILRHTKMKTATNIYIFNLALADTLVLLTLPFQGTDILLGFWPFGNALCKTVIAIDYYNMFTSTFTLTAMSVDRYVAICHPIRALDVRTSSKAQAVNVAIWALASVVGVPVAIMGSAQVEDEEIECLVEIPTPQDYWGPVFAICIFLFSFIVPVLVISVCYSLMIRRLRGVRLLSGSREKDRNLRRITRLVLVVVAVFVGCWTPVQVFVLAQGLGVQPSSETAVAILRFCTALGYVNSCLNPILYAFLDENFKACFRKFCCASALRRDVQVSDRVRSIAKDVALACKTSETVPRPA
Text: Agonist-mediated stimulation of G-protein coupled receptors results in the activation of membrane associated Gαβγ-protein heterotrimer complexes, and represents the first step in the transduction of extracellular signals to modification of intracellular pathways. The first step in activation of receptor-mediated activation of Gαβγ-proteins heterotrimer is the exchange of Gα subunit bound guanosine diphoshpate (GDP) for guanosine triphosphate (GTP). The binding of GTP to the Gα subunit causes dissociation of the heterotrimer subunits, Gβ and Gγ, resulting in the modulation of several intracellular signaling cascades. Measurement of receptor-mediated G-protein activation can be measured using the non-hydrolyzable radiolabeled analog of GTP, GTP-γ-[35S]. Utilizing this methodology, antagonist affinity (Kb) is measured in membranes expressing cloned human ORL1/nociceptin receptors using a GTP-γ-[35S] binding assay according to previously described protocols with minor modifications (DeLapp et al., J Pharmacol Exp Ther. 1999 May; 289(2):946-55; Ozaki et al., Eur J Pharmacol. 2000 Aug. 18; 402(1-2):45-53). Assays are conducted in a 200-μl volume with the following buffer composition: 100 mM NaCl, 20 mM HEPES, 5 mM MgCl2, 1 mM EDTA, 0.1% BSA, 3 μM GDP, 0.5 nM [^35S]GTPγS. ORL1 receptor membrane suspension is added at a concentration of 20 μg protein per well and receptor stimulation is achieved using 300 nM nociceptin/OFQ. Wheat germ agglutinin coated SPA beads (Amersham, Arlington Hts., Ill.) are added at 1 mg per well to detect membrane-bound [^35S]GTPγS. Plates are sealed and incubated for 2 hr. at room temperature. Plates are then placed at 4° C. overnight to allow the SPA beads to settle and then counted in a Wallac Microbeta. Specific [^35S]GTPγS binding is determined as the difference in CPM observed in the absence and presence of 10 μM unlabeled GTPγS. Data are plotted as the percent of specific [^35S]GTPγS bound. Curves are plotted as the percent of specific binding and IC50 values are determined using a sigmoidal dose response curve with variable slope. Antagonist affinity (Kb) is estimated according to DeLapp et al., 1999 using a modification of the equation of Cheng and Prusoff (1973) where Kb=IC50×(1+D×EC50^−1)^−1.

[3] = target: T2, nociceptin/ORL1 receptors (Rattus norvegicus, UniProt P35370); assay: In vivo receptor occupancy (LC/MS/MS, RO Tracer) in hypothalamus; conditions: oral 3 mg/kg dose after 6 hr.
T2 construct: rats are sacrificed by cervical dislocation and the hypothalamus is removed; from tissue; host or cells: rat hypothalamus (in vivo occupancy)
T2 sequence (P35370 whole entry): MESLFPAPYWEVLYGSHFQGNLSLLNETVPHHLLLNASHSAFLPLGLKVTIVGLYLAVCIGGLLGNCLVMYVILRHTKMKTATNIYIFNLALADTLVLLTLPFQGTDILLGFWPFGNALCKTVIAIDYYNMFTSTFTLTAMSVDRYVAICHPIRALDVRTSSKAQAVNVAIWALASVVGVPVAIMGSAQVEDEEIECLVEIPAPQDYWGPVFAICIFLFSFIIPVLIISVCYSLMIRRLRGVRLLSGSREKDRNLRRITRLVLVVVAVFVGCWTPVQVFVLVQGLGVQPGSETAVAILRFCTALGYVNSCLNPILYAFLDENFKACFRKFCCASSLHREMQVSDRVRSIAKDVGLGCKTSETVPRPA

[4] = target: T3, cloned human ORL1 receptors (Homo sapiens, UniProt P41146); assay: [3H]-OFQ/nociceptin receptor binding assay
T3 construct: expressed in transfected cells; host or cells: CHO cells (membranes)
T3 sequence (P41146 whole entry): as the sequence (P41146 whole entry) above
Method: (§1) Radioligand binding assays are commonly used to determine the affinity (Ki) or potency of a compound to bind to a particular receptor or target protein. A filtration-based [3H]-OFQ/nociceptin receptor binding assay is developed based on previous assay formats (Ardati A, Henningsen R A, Higelin J, Reinscheid R K, Civelli O, Monsma F J Jr. Mol. Pharmacol. 1997 May; 51(5):816-24.) with minor modifications. [3H]-OFQ/nociceptin binding assays are carried out in deep-well 96-well plates. [^3H]OFQ (final assay concentration 0.2 nM) competition studies are carried out with 5-10 μg of membrane protein (isolated from Chinese hamster ovary cells (CHO cells) expressing cloned human ORL1 receptors) in a final assay volume of 0.5 mL of buffer containing 20 mM HEPES, pH 7.4, 5 mM MgCl2, 1 mM EGTA, 100 mM NaCl, 0.1% bovine serum albumin. Samples are incubated for 60 min. at room temperature, which is found to be optimal for competition assays. The assays are terminated by filtration through glass fiber filters (Wallac filtermat A) [pretreated with 0.3% polyethylenimine (Sigma) for 1 hr] on a Tometc cell harvester, and the filters are washed three times with 5 mL of ice-cold 50 mM Tris.HCl, pH 7.4. Filtermats are then dried and imbedded with Meltilex scintillant A and the radioactivity counted in a Wallac Microbeta scintillation counter. Specific binding is determined by displacement with 100 nM unlabeled nociceptin. Curves are plotted as the percent of specific binding and IC50 values are determined using a sigmoidal dose response curve with variable slope. K, values are calculated from the IC50 by the equation of Cheng and Prusoff (Cheng, Y. C., and Prusoff, W. H., Biochem. Pharmacol. 22, 3099-3108 (1973)) where Ki=IC50×(1+D×Kd^−1)^−1. Similarly, Ki for the mu, kappa and delta opioids, serotonin, adrenergic, and muscarinic receptors may be determined using membranes expressing the desired receptor and appropriate corresponding radioligand competitor molecules.

[5] = target: human ERG (hERG) K+ channel (Homo sapiens, UniProt Q12809); assay: hERG channel [3H]astemizole binding assay
Chain of human ERG (hERG) K+ channel (Q12809 whole entry): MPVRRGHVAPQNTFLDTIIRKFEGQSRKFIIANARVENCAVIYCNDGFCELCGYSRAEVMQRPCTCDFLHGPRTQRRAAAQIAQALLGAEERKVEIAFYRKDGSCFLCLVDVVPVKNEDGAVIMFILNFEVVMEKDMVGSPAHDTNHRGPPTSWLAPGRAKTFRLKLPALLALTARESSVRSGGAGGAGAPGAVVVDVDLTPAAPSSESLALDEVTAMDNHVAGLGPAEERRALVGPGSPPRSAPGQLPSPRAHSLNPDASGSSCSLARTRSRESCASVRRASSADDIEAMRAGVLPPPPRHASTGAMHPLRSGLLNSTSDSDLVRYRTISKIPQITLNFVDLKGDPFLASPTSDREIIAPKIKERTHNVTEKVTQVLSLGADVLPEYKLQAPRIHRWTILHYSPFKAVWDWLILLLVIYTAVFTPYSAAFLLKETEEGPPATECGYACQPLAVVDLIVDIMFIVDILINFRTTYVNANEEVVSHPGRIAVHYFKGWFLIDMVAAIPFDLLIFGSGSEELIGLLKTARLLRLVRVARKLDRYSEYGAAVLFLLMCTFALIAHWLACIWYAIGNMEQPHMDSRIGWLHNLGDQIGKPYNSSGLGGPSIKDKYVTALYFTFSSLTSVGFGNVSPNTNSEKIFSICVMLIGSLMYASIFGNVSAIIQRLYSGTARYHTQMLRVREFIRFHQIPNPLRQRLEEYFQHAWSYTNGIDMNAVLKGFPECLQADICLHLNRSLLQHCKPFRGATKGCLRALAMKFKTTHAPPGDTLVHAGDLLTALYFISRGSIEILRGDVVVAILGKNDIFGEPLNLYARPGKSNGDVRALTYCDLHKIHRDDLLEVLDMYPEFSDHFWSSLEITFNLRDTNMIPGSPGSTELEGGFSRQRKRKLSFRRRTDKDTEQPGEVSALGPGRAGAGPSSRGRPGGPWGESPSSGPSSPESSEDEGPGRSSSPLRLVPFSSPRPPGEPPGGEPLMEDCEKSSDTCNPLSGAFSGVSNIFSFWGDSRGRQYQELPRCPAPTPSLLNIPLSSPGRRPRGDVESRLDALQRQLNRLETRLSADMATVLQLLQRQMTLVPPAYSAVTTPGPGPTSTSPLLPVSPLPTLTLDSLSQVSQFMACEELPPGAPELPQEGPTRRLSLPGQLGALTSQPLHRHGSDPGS
Method: Blockade of K^+-channel conductance in the heart is associated with cardiotoxicity in the form of QT-wave prolongation. The affinity (Ki) of the exemplified nociceptin receptor antagonists for the human ERG (hERG) K^+ channel is determined in HEK293 cells expressing cloned hERG using the hERG channel antagonist radioligand [3H]astemizole (2 nM final assay concentration) according to well known procedures (see for example Finlayson K, et al. (Eur J Pharmacol. 412(3):203-12, 2001) [3H]Astemizole binding assays are performed at the contract research company Cerep (Paris France) according to standard procedures.

[6] = target: 5-HT5 (Homo sapiens, UniProt P47898); assay: Radioligand binding selectivity; conditions: 5-HT5; read-out: Ki
Chain of 5-HT5 (P47898 whole entry, species assumed): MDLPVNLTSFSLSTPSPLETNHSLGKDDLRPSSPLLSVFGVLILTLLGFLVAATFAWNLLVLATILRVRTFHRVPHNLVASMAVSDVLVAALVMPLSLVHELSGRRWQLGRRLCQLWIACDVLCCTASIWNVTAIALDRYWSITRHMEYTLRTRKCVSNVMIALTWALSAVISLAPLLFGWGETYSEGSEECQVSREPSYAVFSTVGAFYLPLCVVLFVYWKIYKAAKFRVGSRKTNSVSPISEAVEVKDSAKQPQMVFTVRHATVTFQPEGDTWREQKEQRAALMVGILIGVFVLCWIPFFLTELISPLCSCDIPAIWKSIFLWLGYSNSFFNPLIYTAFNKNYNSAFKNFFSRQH
Method: as §1

[7] = target: 5-HT1E (Homo sapiens, UniProt P28566); assay: Radioligand binding selectivity; conditions: 5-HT1E; read-out: Ki
Chain of 5-HT1E (P28566 whole entry, species assumed): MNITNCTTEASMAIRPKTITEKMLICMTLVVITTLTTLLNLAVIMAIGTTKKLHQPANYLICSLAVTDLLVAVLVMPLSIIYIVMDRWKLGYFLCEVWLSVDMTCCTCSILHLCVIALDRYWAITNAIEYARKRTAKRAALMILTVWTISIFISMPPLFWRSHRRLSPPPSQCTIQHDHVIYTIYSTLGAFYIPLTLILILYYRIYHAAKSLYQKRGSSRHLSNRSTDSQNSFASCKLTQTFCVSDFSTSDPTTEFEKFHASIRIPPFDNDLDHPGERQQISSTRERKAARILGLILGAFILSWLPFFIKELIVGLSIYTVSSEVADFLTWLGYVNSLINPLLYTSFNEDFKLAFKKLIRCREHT
Method: as §1

[8] = target: 5-HT4 (Homo sapiens, UniProt Q13639); assay: Radioligand binding selectivity; conditions: 5-HT4; read-out: Ki
Method: as §1

[9] = target: 5-HT1F (Homo sapiens, UniProt P30939); assay: Radioligand binding selectivity
Chain of 5-HT1F (P30939 whole entry, species assumed): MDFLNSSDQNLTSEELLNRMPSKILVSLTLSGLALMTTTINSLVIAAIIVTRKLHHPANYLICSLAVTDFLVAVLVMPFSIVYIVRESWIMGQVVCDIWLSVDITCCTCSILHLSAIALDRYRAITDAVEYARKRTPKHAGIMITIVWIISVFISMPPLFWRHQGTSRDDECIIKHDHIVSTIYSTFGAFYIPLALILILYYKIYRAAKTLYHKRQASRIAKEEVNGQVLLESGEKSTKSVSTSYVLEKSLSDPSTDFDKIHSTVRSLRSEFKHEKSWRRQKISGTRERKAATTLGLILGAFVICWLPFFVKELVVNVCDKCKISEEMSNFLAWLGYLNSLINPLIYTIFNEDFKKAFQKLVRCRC
Method: as §1

[10] = target: 5-HT2B (Homo sapiens, UniProt P41595); assay: Radioligand binding selectivity
Method: as §1

[11] = target: 5-HT7 (Homo sapiens, UniProt P34969); assay: Radioligand binding selectivity; conditions: 5-HT7; read-out: Ki
Chain of 5-HT7 (P34969 whole entry, species assumed): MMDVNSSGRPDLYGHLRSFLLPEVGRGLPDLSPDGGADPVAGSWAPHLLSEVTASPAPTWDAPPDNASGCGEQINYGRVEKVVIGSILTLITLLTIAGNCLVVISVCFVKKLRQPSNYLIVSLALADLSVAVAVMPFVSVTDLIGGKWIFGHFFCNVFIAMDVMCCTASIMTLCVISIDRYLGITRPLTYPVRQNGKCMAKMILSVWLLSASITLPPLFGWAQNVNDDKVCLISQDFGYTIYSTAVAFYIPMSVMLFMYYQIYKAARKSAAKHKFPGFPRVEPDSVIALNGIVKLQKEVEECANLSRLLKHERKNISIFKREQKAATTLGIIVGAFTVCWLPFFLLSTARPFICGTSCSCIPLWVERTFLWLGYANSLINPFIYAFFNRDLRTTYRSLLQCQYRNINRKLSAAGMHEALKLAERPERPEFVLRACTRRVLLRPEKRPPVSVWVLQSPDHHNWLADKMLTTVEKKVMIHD
Method: as §1

[12] = target: 5-HT2A (Homo sapiens, UniProt P28223); assay: Radioligand binding selectivity; conditions: 5-HT2A; read-out: Ki
Chain of 5-HT2A (P28223 whole entry, species assumed): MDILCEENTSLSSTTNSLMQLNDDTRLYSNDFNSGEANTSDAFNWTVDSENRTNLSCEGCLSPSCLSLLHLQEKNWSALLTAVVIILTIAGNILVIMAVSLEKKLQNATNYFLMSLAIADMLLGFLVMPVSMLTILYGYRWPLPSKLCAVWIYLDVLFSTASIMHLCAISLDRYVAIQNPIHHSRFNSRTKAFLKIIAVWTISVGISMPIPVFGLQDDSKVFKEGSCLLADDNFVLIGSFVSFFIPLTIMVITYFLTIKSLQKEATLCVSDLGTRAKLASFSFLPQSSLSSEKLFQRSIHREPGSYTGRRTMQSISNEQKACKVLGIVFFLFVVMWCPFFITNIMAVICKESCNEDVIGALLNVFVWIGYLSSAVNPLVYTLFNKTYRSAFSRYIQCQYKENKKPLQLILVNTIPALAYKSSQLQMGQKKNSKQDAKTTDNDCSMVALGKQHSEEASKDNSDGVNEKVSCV
Method: as §1

[13] = target: 5-HT6 (Homo sapiens, UniProt P50406); assay: Radioligand binding selectivity; conditions: 5-HT6; read-out: Ki
Chain of 5-HT6 (P50406 whole entry, species assumed): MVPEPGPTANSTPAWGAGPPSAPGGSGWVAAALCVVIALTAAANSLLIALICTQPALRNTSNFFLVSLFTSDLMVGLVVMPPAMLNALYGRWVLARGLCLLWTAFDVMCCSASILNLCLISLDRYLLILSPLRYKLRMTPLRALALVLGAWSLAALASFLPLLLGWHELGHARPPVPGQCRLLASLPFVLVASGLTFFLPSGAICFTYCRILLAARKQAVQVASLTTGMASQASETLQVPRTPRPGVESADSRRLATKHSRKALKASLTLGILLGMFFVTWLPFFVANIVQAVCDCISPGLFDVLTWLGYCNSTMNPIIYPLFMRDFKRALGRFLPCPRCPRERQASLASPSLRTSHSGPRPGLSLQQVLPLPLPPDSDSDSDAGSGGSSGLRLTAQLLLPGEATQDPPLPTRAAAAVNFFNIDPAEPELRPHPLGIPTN
Method: as §1

[14] = target: 5-HT2C (Homo sapiens, UniProt P28335); assay: Radioligand binding selectivity; conditions: 5-HT2C; read-out: Ki
Method: as §1

[15] = target: 5-HT1B (Homo sapiens, UniProt P28222); assay: Radioligand binding selectivity; conditions: 5-HT1B; read-out: Ki
Chain of 5-HT1B (P28222 whole entry, species assumed): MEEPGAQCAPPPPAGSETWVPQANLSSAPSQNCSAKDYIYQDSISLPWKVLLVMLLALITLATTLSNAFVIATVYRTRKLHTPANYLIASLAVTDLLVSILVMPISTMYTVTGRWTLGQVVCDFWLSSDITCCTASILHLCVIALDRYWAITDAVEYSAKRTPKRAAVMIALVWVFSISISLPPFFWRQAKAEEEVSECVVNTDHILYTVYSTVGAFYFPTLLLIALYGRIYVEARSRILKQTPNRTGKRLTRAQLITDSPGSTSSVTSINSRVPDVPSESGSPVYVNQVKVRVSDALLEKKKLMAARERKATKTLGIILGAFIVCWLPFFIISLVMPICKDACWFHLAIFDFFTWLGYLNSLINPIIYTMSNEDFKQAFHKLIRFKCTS
Method: as §1

[16] = target: 5-HT1D (Homo sapiens, UniProt P28221); assay: Radioligand binding selectivity; conditions: 5-HT1D; read-out: Ki
Method: as §1

SMILES: OCc1nn(-c2c(F)cccc2F)cc1CN1CCC2(CC1)OCC(F)(F)c1cc(Cl)sc12 [Example 50, [4-[(2-Chloro-4,4-difluoro-spiro[5H-thieno[2,3-c]pyran-7,4′-piperidine]-1′-yl)methyl]-1-(2,6-difluorophenyl)pyrazol-3-yl]methanol]
- fasting-induced hyperphagia [1]: substantially block fasting-induced hyperphagia
- Kb [2]: 0.00054 µM
- receptor occupancy at 3 mg/kg [3]: 81%
- Ki [4]: 0.00089 µM
- Ki [5]: 7 µM
- Ki [6]: > 9.09 µM
- Ki [7]: > 5.37 µM
- Ki [8]: > 4.12 µM
- Ki [9]: > 8.52 µM
- Ki [10]: 0.0429 µM
- Ki [11]: > 3.98 µM
- Ki [12]: > 5 µM
- Ki [13]: > 5.83 µM
- Ki [14]: 4.75 µM
- Ki [15]: > 3.58 µM
- Ki [16]: > 8.55 µM
